For experiment [1], the system named is Mycobacterium tuberculosis 124R. The experiment can be described thus: MIC90 broth macrodilution. Type of experiment: cell-based.
Experiment [2] concerns Mycobacterium tuberculosis 115R. The experiment can be described thus: MIC90 broth macrodilution. Type of experiment: cell-based.
Experiment [3] relates to Mtb. Type of experiment: cell-based, Mycobacterium tuberculosis.
Experiment [4] deals with Mycobacterium tuberculosis H37Rv. The experiment in a line: MIC90 broth macrodilution. It counts as cell-based.

≈ marks a conversion by molar mass, not a printed value. Like-named read-outs stand apart in the source and are kept apart here.

With `C[C@@H](O)[C@H]1C(=O)N2C(C(=O)O)=C(S[C@@H]3CN[C@H](C(=O)N(C)C)C3)[C@H](C)[C@H]12` [Meropenem, reference compound], the MIC90 in experiment [1] (read-out: MIC90) and in experiment [2] (read-out: MIC90) was 8 to 16 µg/mL (≈ 20.9 to 41.7 µM) throughout.

As to `CC(=O)NC[C@H]1CN(c2ccc3c(c2)Oc2ccccc2O3)C(=O)O1` [Compound T145], the MIC90 in experiment [1] and in experiment [2] was 0.5 to 1 µg/mL (≈ 1.47 to 2.94 µM) each time. The “frequency of spontaneous mutations that confer resistance” value in experiment [3] was 4.0×10^−8. The “activity against growth (in words)” value in experiment [4] is given as “potent activity”.

As for `CC(=O)NC[C@H]1CN(c2ccc(N3CCOCC3)c(F)c2)C(=O)O1` [Linezolid, reference compound], the MIC90 in experiment [1] (read-out: MIC90) and in experiment [2] (read-out: MIC90) was 0.25 to 0.5 µg/mL (≈ 0.741 to 1.48 µM) each time.

For `COc1cccc2c1Oc1ccc(N3C[C@H](CNC(C)=O)OC3=O)cc1O2` [Compound T197, (S)—N-((3-(6-methoxydibenzo[b,e][1,4]dioxin-2-yl)-2-oxooxazolidin-5-yl)methyl)acetamide], the MIC90 fell in the range of 4 to 8 µg/mL (≈ 10.8 to 21.6 µM) in experiment [1] (read-out: MIC90) and 8 to 16 µg/mL (≈ 21.6 to 43.2 µM) in experiment [2] (read-out: MIC90).

For the origin of these results see patent US10870646B2, “Oxazolidinones and pharmaceutical compositions thereof for treating bacterial infections, including infection of Mycobacterium tuberculosis” (University of St. Thomas, priority 2017, dated 2020).
